In patent publication US20150216975A1, “NANOVECTOR BASED DRUG DELIVERY SYSTEM FOR OVERCOMING DRUG RESISTANCE” (WILLIAM MARSH RICE UNIVERSITY, priority 2012, published 2015):

Assays:
[1] = system: HER2-neu+ breast cancer cells; experiment: Total cell protein of breast cancer cells after antibody-guided PEG-HCC drugs and pump inhibitors (FIG. 4B); assay type: cell-based, human; conditions: 24 hours
Protocol: (§1) Applicants also investigated whether the potentiation of Vin and Doc toxicity (by Halo and Indo) was applicable to other cancer types. Applicants obtained human breast and cervical cancer cells from the ATCC and grew them in 96 well format.
(§2) In a pair of 96-well plates, confluent cancer cells were treated with 1 μM (Indo or Halo)/PEG-HCC and/or 1 μM (Doc or Vin)/PEG-HCC. The inhibitors were guided to the cell surface using anti-HER2 antibodies. The chemotherapeutics were guided using EGFR antibodies. After incubation for 24 hours, one plate was used to measure total cell protein, and the other was used in dye labeling studies (as described above). This was done for both HER2-neu+ breast and HER2-neu+ cervical cancer cells (where HER2-neu is human epidermal growth factor receptor-2).
100 nM Doc delivered using EGFR IgG yielded 51% of the control, whereas 100 nM Vin yielded 65% of the control. Halo increased the toxicity of Doc, thereby lowering the total protein to 30% of the control. […] In the panels of FIG. 4D, the dye retention of these breast cancer cells is shown under the same conditions. All four compounds cause a significant brightening of the cells. The inhibitor and chemotherapeutic combination panels also indicate that dye retention is potentiated in all four combinations/permutations.

[2] = system: GBM cells; experiment: Potentiation of Vin or Doc toxicity in GBM cells by targeted vs untargeted Halo or Indo via IgG/PEG-HCC delivery, cell numbers (FIG. 3); assay type: cell-based, human; conditions: for cell number (% of control): 24 hours; for increase of toxicity by pump inhibition by Halo (targeted vs untargeted, untargeted averaged to 100%) / increase of toxicity by pump inhibition by Indo (targeted vs untargeted, untargeted averaged to 100%): FIG. 3B
Protocol: To confirm the potentiation effect of chemotherapeutic agents and pump inhibitors, Applicants performed a similar experiment to that shown in FIG. 2. In these experiments, Applicants examined the effects of both inhibitors on both chemotherapeutics. Applicants also inverted the targeting antibodies by utilizing GFAPAB/(Indo or Halo)/PEG-HCC and Il-13RAB/(Doc or Vin)/PEG-HCC. 2 μM Halo/PEG-HCC and Indo/PEG-HCC without antibody targeting were used as controls, which were added with and without 100 nM Vin or Doc as Il-13RAB/Drug/PEG-HCC.
200 nM Il-13RAB/Doc/PEG-HCC caused a drop in cell number to 75% and to 72% (the level seen in the controls) in the presence of (untargeted) Halo/PEG-HCC and Indo/PEG-HCC, respectively. However, targeting of Halo caused a large change in Doc toxicity. The inclusion of an antibody with Halo/PEG-HCC changed the toxicity from 75% to 37%. The inclusion of an antibody with Indo/PEG-HCC changed the Doc toxicity from 72% to 50%.
Vin toxicity was also potentiated in the presence of targeted xenobiotic pump inhibitors. Furthermore, the targeting of Halo dropped the cell numbers from 45% (control number, untargeted) to 27% (targeted). […] However, when Indo was targeted to the GBM cells, this dropped to only 14%. […] Only the potentiating effect is shown, comparing targeted and untargeted xenobiotic pump inhibitors, so that the cell numbers in the presence of untargeted pump inhibitor are averaged to 100%.

[3] = system: human breast cancer cells; experiment: Toxicity of Doc/Vin and Halo/Indo delivered as peptidyl-PEG-HCC in breast cancer cells (FIG. 12); assay type: cell-based; conditions: 50 nM drug; for potentiation of toxicity by Indo: 1 μM Indo as peptidyl-PEG-HCC
Protocol: (§3) In all cases, living cell numbers were calculated at n=6 individual wells and assayed using Hoe. Cells were incubated for 24 hours with Doc or Vin and targeted to the cell surface with peptidyl-PEG-HCC. The targeting peptidyl sequence was DFKLFAVTIKYR, which targets Intigrins αvβ3 and α5β. FIGS. 12B-12C provide data illustrating that drug pump inhibitors Halo and Indo potentiate the effects of Vin and Doc on GBM and breast cancer cells. Cells were incubated with PEG-HCC (control), 50 nM Doc or Vin, or Doc and Vin as peptidyl-PEG-HCC (using DFKLFAVTIKYR targeting Intigrins αvβ3 and α5β). Additionally, these four incubants were treated with PEG-HCC (control), 1 μM Halo or Indo, or Halo and Indo as peptidyl-PEG-HCC (using YRWYGYTPQNVI targeting EGFR).

[4] = system: glioblastoma cells grown in culture; experiment: Living and dead GBM cell counts after Drug/PEG-HCC with or without Halo (FIG. 2B-2E); assay type: cell-based, human; conditions: for dead cell numbers when Halo is used in conjunction: 24 hours, drug/PEG-HCC with Halo (FIG. 2C)
Protocol: (§4) The drugs (Vin and Doc) were delivered to a final concentration of 100 nM in the form of GFAPAB/Drug/PEG-HCC. In some experiments, pump inhibitors Haloperidol (Halo) and Indomethacin (Indo) were added at a final concentration of 2 μM in the form of Il-13RAB/Inhibitor/PEG-HCC. Controls consisting of unloaded PEG-HCC, drug/inhibitor loaded PEG-HCC, GFAPAB, or saline were also used. Cells were treated for 24 hours with GFAPAB/Drug/PEG-HCC and/or Il-13RAB/Halo/PEG-HCC. Next, the cells were incubated for 1 hour with Rh123, BCECF-AM and Hoe, as previously described. Cells were then imaged at ×30 magnification using filters for Rh123, BCECF and Hoe.
Furthermore, it is shown in FIG. 2C that the dead cell numbers are elevated when Halo is used in conjunction with both Vin and Doc.
FIGS. 2D-2E show additional data relating to Halo-mediated potentiation of Vin, Doc and SN38 toxicity in HADES compositions.

[5] = system: GBM cells (BT111 cells); experiment: Toxicity of Doc/Vin and Halo/Indo delivered as peptidyl-PEG-HCC in GBM cells, living cell numbers (FIG. 12); assay type: cell-based, human; conditions: gliomal cells, 24 hours, 50 nM drug; for toxicity in the presence of both pump inhibitors (Halo and Indo): 1 μM Halo and Indo as peptidyl-PEG-HCC; for toxicity on co-incubation with Halo: 1 μM Halo as peptidyl-PEG-HCC (YRWYGYTPQNVI)
Protocol: as §3

[6] = system: xenobiotic pumps in human primary GBM cells; experiment: Retention of xenobiotic pump dye substrates (Rh123, BCECF, Hoe) in GBM cells (FIG. 1, 2A, 2F); assay type: cell-based; conditions: for dye retention, chemotherapeutic drug alone / dye accumulation in drug and inhibitor combinations / dye retention, pump inhibitor loaded on PEG-HCC targeted by IL-13R IgGs: GBM cells; for dye retention, chemotherapeutic drug alone / dye accumulation in drug and inhibitor combinations: 24 hours; for dye retention, chemotherapeutic drug alone: 100 nM as GFAPAB/Drug/PEG-HCC; for dye accumulation in drug and inhibitor combinations: 100 nM drug and 2 μM inhibitor on targeted PEG-HCC (FIG. 2A); for dye retention, pump inhibitor loaded on PEG-HCC targeted by IL-13R IgGs: Il-13RAB/Inhibitor/PEG-HCC (FIG. 2A, 2F); for retention of dyes (Rh123, BCECF, Hoe): human GBM cells, ninety minutes, 20 μM Fumitremorgin C, 200 μM Indomethacin
Text: Applicants investigated the ability of human primary glioma cells to retain dyes in the absence and presence of known drug pump inhibitors. […] After ninety minutes, the cells were fixed using ice-cold 2% paraformaldehyde. The fixed cells were stored overnight in a refrigerator. The cells were then washed three times in phosphate buffered saline at pH 7.4 (PBS) and imaged in a fluorescence microscope.
In this experiment, PEG-HCCs were loaded with Halo, Sulfinpyrazone (Sulf) or Indo. The same methodologies outlined above were used. The constructs were then targeted to GBM cells by IL-13R IgGs.
as §4

[7] = system: HER2-neu+ cervical cancer cells; experiment: Total cell protein of cervical cancer cells after antibody-guided PEG-HCC drugs and pump inhibitors (FIG. 4A); assay type: cell-based, human; conditions: 24 hours
Protocol: as §1, §2
100 nM Doc delivered using EGFR IgG yielded 78% of the control, whereas 100 nM Vin yielded 87% of the control. Halo increased the toxicity of Doc, lowering the total protein to 25% of the control. […] Indo increased the toxicity of Doc slightly (from 78% to 68%) and Vin greatly (from 87% to 36%). In the panels of FIG. 4C, the dye retention of these cervical cancer cells is shown under the same conditions. All four compounds cause a significant brightening of the cells.

[8] = 100 nM drug delivered using EGFR IgG, no pump inhibitor
[9] = drug via EGFR IgG plus Indo/PEG-HCC guided by anti-HER2
[10] = drug via EGFR IgG plus Halo/PEG-HCC guided by anti-HER2

Row | SMILES | total cell protein (% of the control) [1, 8] [%] | total cell protein (% of the control) [1, 9] [%] | increase of toxicity by pump inhibition by Halo (targeted vs untargeted, untargeted averaged to 100%) [2] | increase of toxicity by pump inhibition by Indo (targeted vs untargeted, untargeted averaged to 100%) [2] [%] | potentiation of toxicity by Indo [3] | dead cell numbers when Halo is used in conjunction [4] | toxicity in the presence of both pump inhibitors (Halo and Indo) [5] | toxicity on co-incubation with Halo [5] | dye retention, chemotherapeutic drug alone [6] | dye accumulation in drug and inhibitor combinations [6] | total cell protein (% of the control) [7, 8] [%] | total cell protein (% of the control) [7, 9] [%] | dye retention, pump inhibitor loaded on PEG-HCC targeted by IL-13R IgGs [6] | retention of dyes (Rh123, BCECF, Hoe) [6] | other results
1 | CC[C@]1(O)C[C@@H]2CN(CCc3c([nH]c4ccccc34)[C@@](C(=O)OC)(c3cc4c(cc3OC)N(C)[C@H]3[C@@](O)(C(=O)OC)[C@H](OC(C)=O)[C@]5(CC)C=CCN6CC[C@]43[C@@H]65)C2)C1 [Vin, vinblastine] | 65 | 33 | approximately 50% | 70 | potentiated | elevated | did not lead to a greater level of toxicity than Indo alone | moderately enhanced | differentially increase dye retention | synergistic effect in dye accumulation | 87 | 36 |  |  | effect of Halo on toxicity (in words) [1]: no potentiating effect; cell number (% of control) ([2]; drug as Il-13RAB/Drug/PEG-HCC with antibody-targeted Halo/PEG-HCC (GFAPAB)): 27%; cell number (% of control) ([2]; drug as Il-13RAB/Drug/PEG-HCC with antibody-targeted Indo/PEG-HCC (GFAPAB)): 14%; toxicity in the presence of Indo ([5]; 1 μM Indo as peptidyl-PEG-HCC (YRWYGYTPQNVI)): more than doubled; effect of Halo on toxicity (in words) [7]: slight effect
2 | CC(=O)O[C@@]12CO[C@@H]1C[C@H](O)[C@@]1(C)C(=O)[C@H](O)C3=C(C)[C@@H](OC(=O)[C@H](O)[C@@H](NC(=O)OC(C)(C)C)c4ccccc4)C[C@@](O)([C@@H](OC(=O)c4ccccc4)[C@H]21)C3(C)C [Doc, docetaxel] | 51 | 68 | approximately 50% | 40 | potentiated | elevated | greater level of toxicity than Halo or Indo alone | more enhanced by co-incubation with Halo | differentially increase dye retention | synergistic effect in dye accumulation | 78 | 68 |  |  | total cell protein (% of the control) [1, 10]: 30%; toxicity with both pump inhibitors (Halo and Indo) ([3]; 1 μM Halo and Indo as peptidyl-PEG-HCC): greatly by both on combination; potentiation of toxicity by Halo ([3]; 1 μM Halo as peptidyl-PEG-HCC): potentiated; total cell protein (% of the control) [7, 10]: 25%
3 | O=C(CCCN1CCC(O)(c2ccc(Cl)cc2)CC1)c1ccc(F)cc1 [Halo, Haloperidol] |  |  |  |  |  |  |  |  |  |  |  |  | same experimental results were obtained |  | 
4 | COc1ccc2c(c1)c(CC(=O)O)c(C)n2C(=O)c1ccc(Cl)cc1 [Indo, Indomethacin] |  |  |  |  |  |  |  |  |  |  |  |  | same experimental results were obtained | increase dye retention of all dyes | 
5 | COc1ccc2c3c([nH]c2c1)[C@H](C=C(C)C)N1C(=O)[C@@H]2CCCN2C(=O)[C@@H]1C3 [Fumitremorgin C] |  |  |  |  |  |  |  |  |  |  |  |  |  | increase dye retention of all dyes | 
6 | CCc1c2c(nc3ccc(O)cc13)-c1cc3c(c(=O)n1C2)COC(=O)[C@]3(O)CC [SN-38] |  |  |  |  |  |  |  |  |  |  |  |  |  |  | effect of Halo on toxicity in HADES compositions ([4]; FIGS. 2D-2E): minimally affected
